The source of these data is ChEMBL document CHEMBL1152081, “1,25-Dihydroxyvitamin D3 Hybrid Analogs with Structural changes at both the A-ring and the C,D-ring side-chain. II” (1995).

Type in all cases: functional
The species entered for experiment [1] is Rattus norvegicus. Description: Stimulation of calcium currents by the compound in rat osteosarcoma cells at a concentration of 0.5 nM.
The species named for experiment [2] is Rattus norvegicus. Description: Stimulation of calcium currents by the compound in rat osteosarcoma cells at a concentration of 5.0 nM.
Experiment [3] is filed under the species Rattus norvegicus. In words: Stimulation of calcium currents by the compound in rat osteosarcoma cells at a concentration of 0.01 nM.
The species entered for experiment [4] is Rattus norvegicus. In words: Stimulation of calcium currents by the compound in rat osteosarcoma cells at a concentration of 0.05 nM.

Take `C=C1/C(=C\C=C2/CCC[C@]3(C)C([C@@H](C)CSc4cccc(C(C)(C)O)c4)CC[C@@H]23)C[C@H](O)C[C@H]1CO` (stereo not given in full): the “Ca2+ current” value was 6.24 mV in the experiment listed under Rattus norvegicus [1] and 8.58 mV in the experiment filed under Rattus norvegicus [2].

With `C=C1/C(=C\C=C2/CCC[C@]3(C)C([C@@H](C)COCCCC(C)(C)O)CC[C@@H]23)C[C@@H](O)C[C@@H]1CO` (stereo not given in full), the “Ca2+ current” value turned out to be 8.8 mV in the experiment listed under Rattus norvegicus [1], 8.99 mV in the experiment filed under Rattus norvegicus [2], 5.42 mV in the experiment filed under Rattus norvegicus [3] and 7.33 mV in the experiment filed under Rattus norvegicus [4].

Turning to `C=C1/C(=C\C=C2/CCC[C@]3(C)C([C@@H](C)COCCCC(C)(C)O)CC[C@@H]23)C[C@H](O)C[C@H]1CO` (stereo not given in full), the “Ca2+ current” value in the experiment listed under Rattus norvegicus [1] came out at 10 mV; in the experiment filed under Rattus norvegicus [2], 8.93 mV; in the experiment listed under Rattus norvegicus [3], 4.94 mV; in the experiment filed under Rattus norvegicus [4], 7.3 mV.

Turning to `C=C1/C(=C\C=C2/CCC[C@]3(C)C([C@@H](C)CSc4cccc(C(C)(C)O)c4)CC[C@@H]23)C[C@@H](O)C[C@@H]1CO` (stereo not given in full), the “Ca2+ current” value worked out at 6.6 mV in the experiment listed under Rattus norvegicus [1] and 11.18 mV in the experiment listed under Rattus norvegicus [2].

For `C=C1/C(=C\C=C2/CCC[C@]3(C)[C@@H]([C@H](C)CCCC(C)(C)O)CC[C@@H]23)C[C@@H](O)C[C@@H]1O` [CALCITRIOL], the entries for the “Ca2+ current” value in the experiment filed under Rattus norvegicus [1], in the experiment filed under Rattus norvegicus [2] and in the experiment listed under Rattus norvegicus [4] were 5.73 mV, 9.79 mV and 1.78 mV, respectively.
